Measured values: US20230210999A1, “TARGETED PROTEASE DEGRADATION (TED) PLATFORM” (EUBULUS BIOTHERAPEUTICS INC., priority 2020, published 2023)
Read-outs that look alike come from different tables or passages of the source.

Assays:
Format in all cases: cell-based, human
MV4;11 cells = experiment: Cell proliferation experiment (Alamar blue, 72 h), MV4;11; settings: read-out: Inhibitory activity IC50 on MV4;11
Procedure: (§1) Reagents: RPMI-1640 medium, McCoy's 5A medium, IMDM medium, MEM medium, L-15 medium, fetal bovine serum. Penicillin-Streptomycin double antibody, trypsin, etc., 2-mercaptoethanol, NEAA, pyruvate, etc.
(§2) The cells were cultured in conventional ways, and the cells should be passed at least 2 generations before plating. Cells at the logarithmic growth phase were collected, prepared into single cell suspensions and counted. The concentration of cells was adjusted to the desired concentration, and cells were inoculated into a 96-well cell culture plate at 100 μl per well. 100 μL of complete medium of the test compound were added to each well, set up 2 duplicate wells for each concentration, and diluted with a 5-fold gradient, and continued to culture for 72 h. All cells were subjected to IC50 test for corresponding samples. The experimental results are shown in Test Example 4.
(§3) The fluorescence intensity of each well was detected using the Alarm blue method, and IC50 was calculated.
(§4) IC50 was calculated according to the following formula:
(§5) Y=Max+(Min−Max)/[1+(X/IC50)×Slope]
(§6) wherein Min, Max and Slope represent the minimum, maximum and slope respectively.

Daudi cells = experiment: Cell proliferation experiment, Daudi; settings: Daudi cells, read-out: Inhibitory activity IC50 on Daudi
Procedure: as §1, §2, §3, §4, §5, §6

NCIH82 cells = experiment: Cell proliferation experiment, NCI-H82; settings: read-out: Inhibitory activity IC50 on NCI-H82
Procedure: as §1, §2, §3, §4, §5, §6

[1] = Homo sapiens, MV4-11, MV4;11 cells
[2] = Homo sapiens, NCI-H82, NCI-H82 cells

SMILES	IC50 (MV4;11 cells; [1]) [nM]	IC50 (Daudi cells; Homo sapiens, Daudi) [nM]	IC50 (NCIH82 cells; [2]) [nM]	IC50 (MV4;11 cells; MV4;11 cells) [nM]	IC50 (Daudi cells) [nM]	IC50 (NCIH82 cells; NCI-H82 cells) [nM]
CCNC(=O)C#Cc1ccc2c(c1)NC(=O)/C2=C(\Nc1ccc(CNCCOCCOCCOCCC(=O)N[C@H](C(=O)N2C[C@H](O)C[C@H]2C(=O)NCc2ccc(-c3scnc3C)cc2)C(C)(C)C)cc1)c1ccccc1 [UB-180970]	100 to 1000	> 1000	> 1000			
CCNC(=O)C#Cc1ccc2c(c1)NC(=O)/C2=C(\Nc1ccc(CNCCOCCOCCOCCC(=O)Nc2ccc3c(c2)CN(C2CCC(=O)NC2=O)C3=O)cc1)c1ccccc1 (stereo not drawn) [UB-180972]	10 to 100	100 to 1000	100 to 1000			
O=C1CCC(N2Cc3cc(C#CCCNCCOCCOCCOCCn4cc([C@]5(Cc6cccc(Nc7nccs7)n6)CC[C@@H](Oc6cccc(Cl)c6F)CC5)nn4)ccc3C2=O)C(=O)N1 (stereo partly drawn) [UB-180973]	100 to 1000	> 1000	> 1000			
O=C1CCC(N2Cc3cc(NC(=O)CCOCCOCCN[C@H]4CC[C@@H](n5cc(-c6ccc(Nc7ncc8c(n7)-c7ccc(Cl)cc7C(c7c(F)cccc7F)=NC8)cc6)nn5)CC4)ccc3C2=O)C(=O)N1 (stereo partly drawn) [UB-180981]	> 1000	> 1000	> 1000			
O=C1CCC(N2Cc3cc(NC(=O)CCCCCCCNCCn4cc(-c5ccc(Nc6ncc7c(n6)-c6ccc(Cl)cc6C(c6c(F)cccc6F)=NC7)cc5)nn4)ccc3C2=O)C(=O)N1 (stereo not drawn) [UB-180983]	10 to 100	100 to 1000	100 to 1000			
O=C1CCC(N2Cc3c(NC(=O)CCCCCCCNCCCn4cc(-c5ccc(Nc6ncc7c(n6)-c6ccc(Cl)cc6C(c6c(F)cccc6F)=NC7)cc5)nn4)cccc3C2=O)C(=O)N1 (stereo not drawn) [UB-180987]	> 1000	> 1000	> 1000			
O=C1CCC(N2Cc3cc(NC(=O)CCCCCCCN[C@H]4CC[C@@H](n5cc(-c6ccc(Nc7ncc8c(n7)-c7ccc(Cl)cc7C(c7c(F)cccc7F)=NC8)cc6)nn5)CC4)ccc3C2=O)C(=O)N1 (stereo partly drawn) [UB-180989]	> 1000	> 1000	> 1000			
O=C1CCC(N2Cc3c(NC(=O)CCCCCCCCCN[C@H]4CC[C@@H](n5cc(-c6ccc(Nc7ncc8c(n7)-c7ccc(Cl)cc7C(c7c(F)cccc7F)=NC8)cc6)nn5)CC4)cccc3C2=O)C(=O)N1 (stereo partly drawn) [UB-180997]				> 1000	> 1000	> 1000
O=C1CCC(N2Cc3cc(NC(=O)CCNCCCOCCCCn4cc([C@]5(Cc6cccc(Nc7nccs7)n6)CC[C@@H](Oc6cccc(Cl)c6F)CC5)nn4)ccc3C2=O)C(=O)N1 (stereo partly drawn) [UB-181001]	> 1000	> 1000	> 1000			
O=C1CCC(N2Cc3c(NC(=O)CCCCCCCCCNCCn4cc([C@]5(Cc6cccc(Nc7nccs7)n6)CC[C@@H](Oc6cccc(Cl)c6F)CC5)nn4)cccc3C2=O)C(=O)N1 (stereo partly drawn) [UB-181002]	> 1000	> 1000	> 1000			
O=C1CCC(N2Cc3c(NC(=O)CCNCCOCCOCCn4cc([C@]5(Cc6cccc(Nc7nccs7)n6)CC[C@@H](Oc6cccc(Cl)c6F)CC5)nn4)cccc3C2=O)C(=O)N1 (stereo partly drawn) [UB-181003]	100 to 1000	> 1000	> 1000			
NC(COCCCCCCCC(=O)Nc1ccc2c(c1)CN(C1CCC(=O)NC1=O)C2=O)Cn1cc(-c2ccc(Nc3ncc4c(n3)-c3ccc(Cl)cc3C(c3c(F)cccc3F)=NC4)cc2)nn1 (stereo not drawn) [UB-181007]	100 to 1000	100 to 1000	> 1000			
O=C1CCC(N2Cc3cc(C#CCCNCCOCCOCCn4cc(-c5ccc(Nc6ncc7c(n6)-c6ccc(Cl)cc6C(c6c(F)cccc6F)=NC7)cc5)nn4)ccc3C2=O)C(=O)N1 (stereo not drawn) [UB-181012]	100 to 1000	> 1000	> 1000			
O=C1CCC(N2Cc3c(NC(=O)CNCCCCOCCCCNC(=O)[C@]4(Cc5cccc(Nc6nccs6)n5)CC[C@@H](Oc5cccc(Cl)c5F)CC4)cccc3C2=O)C(=O)N1 (stereo partly drawn) [UB-181013]	100 to 1000	> 1000	> 1000			
O=C1CCC(N2Cc3c(C#CCCNCCOCCOCCNC(=O)[C@]4(Cc5cccc(Nc6nccs6)n5)CC[C@@H](Oc5cccc(Cl)c5F)CC4)cccc3C2=O)C(=O)N1 (stereo partly drawn) [UB-181014]	100 to 1000	> 1000	> 1000			

The remaining lines, values ahead:

IC50 (MV4;11 cells; [1]) [nM]	IC50 (Daudi cells; Homo sapiens, Daudi) [nM]	IC50 (NCIH82 cells; [2]) [nM]	IC50 (MV4;11 cells; MV4;11 cells) [nM]	IC50 (Daudi cells) [nM]	IC50 (NCIH82 cells; NCI-H82 cells) [nM]	SMILES
100 to 1000	> 1000	> 1000				CCNC(=O)C#Cc1ccc2c(c1)NC(=O)/C2=C(\Nc1ccc(CNCCOCCOCCOCCC(=O)Nc2cccc3c2CN(C2CCC(=O)NC2=O)C3=O)cc1)c1ccccc1 (stereo not drawn) [UB-180971]
100 to 1000	> 1000	> 1000				O=C1CCC(N2Cc3c(C#CCCNCCOCCOCCOCCn4cc(-c5ccc(Nc6ncc7c(n6)-c6ccc(Cl)cc6C(c6c(F)cccc6F)=NC7)cc5)nn4)cccc3C2=O)C(=O)N1 (stereo not drawn) [UB-180974]
> 1000	> 1000	> 1000				O=C1CCC(N2Cc3c(C#CCCOCCN[C@H]4CC[C@H](n5cc(-c6ccc(Nc7ncc8c(n7)-c7ccc(Cl)cc7C(c7c(F)cccc7F)=NC8)cc6)nn5)CC4)cccc3C2=O)C(=O)N1 (stereo partly drawn) [UB-180975]
100 to 1000	> 1000	> 1000				O=C1CCC(N2Cc3cc(NC(=O)CNCCOCCOCCOCCn4cc(-c5ccc(Nc6ncc7c(n6)-c6ccc(Cl)cc6C(c6c(F)cccc6F)=NC7)cc5)nn4)ccc3C2=O)C(=O)N1 (stereo not drawn) [UB-180976]
100 to 1000	> 1000	> 1000				O=C1CCC(N2Cc3cc(NC(=O)CCCCCCCNCCCn4cc(-c5ccc(Nc6ncc7c(n6)-c6ccc(Cl)cc6C(c6c(F)cccc6F)=NC7)cc5)nn4)ccc3C2=O)C(=O)N1 (stereo not drawn) [UB-180982]
> 1000	> 1000	> 1000				O=C1CCC(N2Cc3c(NC(=O)CCCCCCCN[C@H]4CC[C@@H](n5cc(-c6ccc(Nc7ncc8c(n7)-c7ccc(Cl)cc7C(c7c(F)cccc7F)=NC8)cc6)nn5)CC4)cccc3C2=O)C(=O)N1 (stereo partly drawn) [UB-180988]
100 to 1000	> 1000	> 1000				O=C1CCC(N2Cc3c(NC(=O)CCCCCCCCCNCCn4cc(-c5ccc(Nc6ncc7c(n6)-c6ccc(Cl)cc6C(c6c(F)cccc6F)=NC7)cc5)nn4)cccc3C2=O)C(=O)N1 (stereo not drawn) [UB-180990]
100 to 1000	> 1000	> 1000				O=C1CCC(N2Cc3cc(NC(=O)CCNCCOCCOCCn4cc(-c5ccc(Nc6ncc7c(n6)-c6ccc(Cl)cc6C(c6c(F)cccc6F)=NC7)cc5)nn4)ccc3C2=O)C(=O)N1 (stereo not drawn) [UB-180991]
100 to 1000	> 1000	> 1000				O=C1CCC(N2Cc3cc(NC(=O)CCNCCOCCOCCn4cc([C@]5(Cc6cccc(Nc7nccs7)n6)CC[C@@H](Oc6cccc(Cl)c6F)CC5)nn4)ccc3C2=O)C(=O)N1 (stereo partly drawn) [UB-180994]
> 1000	> 1000	> 1000				O=C1CCC(N2Cc3cc(NC(=O)CCCCCCCCCNCCn4cc([C@]5(Cc6cccc(Nc7nccs7)n6)CC[C@@H](Oc6cccc(Cl)c6F)CC5)nn4)ccc3C2=O)C(=O)N1 (stereo partly drawn) [UB-180995]
> 1000	> 1000	> 1000				O=C1CCC(N2Cc3c(NC(=O)CCCCCCCCCN[C@H]4CC[C@@H](n5cc(-c6ccc(Nc7ncc8c(n7)-c7ccc(Cl)cc7C(c7c(F)cccc7F)=NC8)cc6)nn5)CC4)cccc3C2=O)C(=O)N1 (stereo partly drawn) [UB-180996]
> 1000	> 1000	> 1000				O=C1CCC(N2Cc3cc(NC(=O)CCNCCCOCCCCn4cc(-c5ccc(Nc6ncc7c(n6)-c6ccc(Cl)cc6C(c6c(F)cccc6F)=NC7)cc5)nn4)ccc3C2=O)C(=O)N1 (stereo not drawn) [UB-181000]
	> 1000		> 1000		> 1000	O=C1CCC(N2Cc3cc(NC(=O)CCOCCOCC(O)COCCn4cc(-c5ccc(Nc6ncc7c(n6)-c6ccc(Cl)cc6C(c6c(F)cccc6F)=NC7)cc5)nn4)ccc3C2=O)C(=O)N1 (stereo not drawn) [UB-181005]
> 1000	> 1000	> 1000				O=C1CCC(N2Cc3cc(NC(=O)CCOCCOCCOCCN[C@H]4CC[C@@H](NC(=O)c5ccc(Nc6ncc7c(n6)-c6ccc(Cl)cc6C(c6c(F)cccc6F)=NC7)cc5)CC4)ccc3C2=O)C(=O)N1 (stereo partly drawn) [UB-181006]
100 to 1000	100 to 1000	> 1000				O=C1CCC(N2Cc3cc(NC(=O)CNCCCOCCCCCn4cc(-c5ccc(Nc6ncc7c(n6)-c6ccc(Cl)cc6C(c6c(F)cccc6F)=NC7)cc5)nn4)ccc3C2=O)C(=O)N1 (stereo not drawn) [UB-181008]
100 to 1000	> 1000	> 1000				O=C1CCC(N2Cc3cc(NC(=O)CNCCCOCCCCCn4cc([C@]5(Cc6cccc(Nc7nccs7)n6)CC[C@@H](Oc6cccc(Cl)c6F)CC5)nn4)ccc3C2=O)C(=O)N1 (stereo partly drawn) [UB-181009]
100 to 1000	> 1000	> 1000				O=C1CCC(N2Cc3cc(C#CCCOCCOCCOCCNC4CCC(n5cc(-c6ccc(Nc7ncc8c(n7)-c7ccc(Cl)cc7C(c7c(F)cccc7F)=NC8)cc6)nn5)CC4)ccc3C2=O)C(=O)N1 (stereo not drawn) [UB-181010]
100 to 1000	10 to 100	> 1000				O=C1CCC(N2Cc3cc(NC(=O)CNCCCCOCCCCn4cc(-c5ccc(Nc6ncc7c(n6)-c6ccc(Cl)cc6C(c6c(F)cccc6F)=NC7)cc5)nn4)ccc3C2=O)C(=O)N1 (stereo not drawn) [UB-181011]
100 to 1000	> 1000	> 1000				O=C1CCC(N2Cc3cc(C#CCCNCCOCCOCCNC(=O)[C@]4(Cc5cccc(Nc6nccs6)n5)CC[C@@H](Oc5cccc(Cl)c5F)CC4)ccc3C2=O)C(=O)N1 (stereo partly drawn) [UB-181015]
